{
  "source": "patent US9474754B2",
  "about": "“Pharmaceutical combinations comprising a B-RAF inhibitor, and EGFR inhibitor and optionally a PI3K-α inhibitor” (NOVARTIS AG, priority 2012, dated 2016)",
  "key": {"LS411N": {"test_system": "LS411N", "experiment": "72 hr cell titer Glo proliferation assay, LS411N", "format": "cell-based", "details": "Homo sapiens, LS-411N, single agent, BRAFV600E", "protocol": "(§1) All cell lines express the BRAFV600E protein, except MDST8 which expresses the BRAFV600K variant. Cells harboring known or putative activating mutations in the PI3Kα gene are marked with a (*) and cells with PTEN loss marked with a (#). Cell proliferation was measured in 72 hr cell titer Glo™ assays and all results shown are the result of at least triplicate measurements. […] Interactions were deemed synergistic when scores ≧2.0 where observed."}, "COLO 205": {"test_system": "COLO 205", "experiment": "72 hr cell titer Glo proliferation assay, COLO 205", "format": "cell-based", "details": "Homo sapiens, single agent, COLO 205, BRAFV600E", "protocol": "as §1"}, "CL-34": {"test_system": "CL-34", "experiment": "72 hr cell titer Glo proliferation assay, CL-34", "format": "cell-based", "details": "single agent, CL-34, BRAFV600E", "protocol": "as §1"}, "[1]": {"test_system": "HT-29 human colorectal adenocarcinoma xenograft", "format": "in vivo", "details": "for T/C: D29, 100×ΔT/ΔC for ΔT>0; for T/C / Mean Volume Day 1 / Mean Volume Day 29 / Mean Volume Change (ΔT): Cpd A 20 mg/kg po bid x 28, Cpd B 25 mg/kg po qd x 28, cetuximab 20 mg/kg ip biwk x 4, paclitaxel 30 mg/kg iv qod x 5; for Mean Volume Day 1: Day 1, start of dosing; for Mean Volume Change (ΔT): between D1 and D29; for Mean BW Nadir, day of nadir / Deaths NTR / Deaths TR / Regressions CR / Regressions PR: doses as in table; for Deaths NTR / Deaths TR / Regressions CR / Regressions PR: n = 10 per group; for Statistical Significance vs G1: vs Group 1 (vehicles), tumor volume change D1-D29", "protocol": "A fresh suspension was prepared every two weeks and stored at room temperature.\nA fresh suspension was prepared weekly and stored at 4° C.\nDosing solutions were freshly prepared for one group at a time.\nEach agent was administered at a single dose level, individually and in dual and triple combinations, that were initiated on Day 1 (D1) in female nude mice with established subcutaneous tumors. […] Efficacy was determined from mean tumor volume changes between D1 and D29. Prism summarizes test results as not significant (ns) at P>0.05, significant (symbolized by “*”) at 0.01<P≦0.05, very significant (“**”) at 0.001<P≦0.01, and extremely significant (“***”) at P≦0.001.\nFor the purpose of statistical analyses, ΔTV, the difference in tumor volume between D1 (the start of dosing) and the endpoint day, was determined for every animal. […] The […] values are negative represent net tumor reduction for a group. […] Response to Combination Therapies (Groups 5-8)"}, "SW1417": {"test_system": "SW1417", "experiment": "72 hr cell titer Glo proliferation assay, SW1417", "format": "cell-based", "details": "Homo sapiens, single agent, SW1417, BRAFV600E", "protocol": "as §1"}, "BCRP": {"target": "T1, BCRP (Homo sapiens, UniProt Q9UNQ0)", "T1 sequence (Q9UNQ0 1-655)": "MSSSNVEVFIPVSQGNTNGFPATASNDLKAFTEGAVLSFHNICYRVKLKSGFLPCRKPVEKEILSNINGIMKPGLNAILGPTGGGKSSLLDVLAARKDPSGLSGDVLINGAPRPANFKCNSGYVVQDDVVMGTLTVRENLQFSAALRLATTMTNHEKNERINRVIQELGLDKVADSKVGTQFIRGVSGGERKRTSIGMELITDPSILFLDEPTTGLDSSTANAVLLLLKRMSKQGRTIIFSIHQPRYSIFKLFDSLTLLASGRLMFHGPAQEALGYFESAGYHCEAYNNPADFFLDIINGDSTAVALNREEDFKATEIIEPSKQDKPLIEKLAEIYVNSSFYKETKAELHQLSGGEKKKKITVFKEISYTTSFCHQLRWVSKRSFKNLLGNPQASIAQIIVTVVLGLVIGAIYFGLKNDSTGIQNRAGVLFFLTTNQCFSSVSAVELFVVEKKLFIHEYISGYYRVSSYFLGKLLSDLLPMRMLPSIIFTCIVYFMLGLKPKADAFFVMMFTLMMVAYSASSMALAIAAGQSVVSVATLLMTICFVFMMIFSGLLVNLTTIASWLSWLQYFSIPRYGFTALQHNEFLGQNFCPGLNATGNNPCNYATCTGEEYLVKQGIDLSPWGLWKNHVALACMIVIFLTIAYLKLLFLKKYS", "experiment": "BCRP interaction", "format": "in vitro ADME"}, "RKO": {"test_system": "RKO", "experiment": "72 hr cell titer Glo proliferation assay, RKO", "format": "cell-based", "details": "Homo sapiens, single agent, RKO (PI3Kα mutation), BRAFV600E", "protocol": "as §1"}, "OUMS-23": {"test_system": "OUMS-23", "experiment": "72 hr cell titer Glo proliferation assay, OUMS-23", "format": "cell-based", "details": "single agent, OUMS-23 (PTEN loss), BRAFV600E", "protocol": "as §1"}, "CYP3A4": {"target": "CYP3A4 (Homo sapiens, UniProt P08684)", "sequence (P08684 whole entry)": "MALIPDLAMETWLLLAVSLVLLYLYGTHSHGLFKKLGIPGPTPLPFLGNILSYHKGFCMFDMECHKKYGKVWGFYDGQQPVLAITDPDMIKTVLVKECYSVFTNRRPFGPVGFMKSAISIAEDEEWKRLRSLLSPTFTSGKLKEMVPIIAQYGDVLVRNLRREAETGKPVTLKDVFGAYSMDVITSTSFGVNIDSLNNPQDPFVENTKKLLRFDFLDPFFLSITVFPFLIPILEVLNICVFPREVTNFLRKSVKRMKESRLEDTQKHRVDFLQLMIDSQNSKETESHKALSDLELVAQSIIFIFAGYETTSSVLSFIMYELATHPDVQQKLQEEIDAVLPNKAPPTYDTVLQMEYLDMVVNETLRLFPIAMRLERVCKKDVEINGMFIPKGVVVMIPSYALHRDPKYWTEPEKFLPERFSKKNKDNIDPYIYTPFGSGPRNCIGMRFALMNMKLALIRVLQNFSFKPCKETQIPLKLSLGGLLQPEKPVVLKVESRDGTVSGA", "experiment": "CYP3A4 interaction", "format": "in vitro ADME"}, "SNU-C5": {"test_system": "SNU-C5", "experiment": "72 hr cell titer Glo proliferation assay, SNU-C5", "format": "cell-based", "details": "single agent, SNU-C5 (PI3Kα mutation), BRAFV600E", "protocol": "as §1"}, "HT-29": {"test_system": "HT-29", "experiment": "72 hr cell titer Glo proliferation assay, HT-29", "format": "cell-based", "details": "Homo sapiens, single agent, HT-29 (PI3Kα mutation), BRAFV600E", "protocol": "as §1"}, "Rat ADME bioavailability": {"experiment": "Rat ADME bioavailability", "format": "in vivo", "details": "pre-clinical"}, "MDST8": {"test_system": "MDST8", "experiment": "72 hr cell titer Glo proliferation assay, MDST8", "format": "cell-based", "details": "single agent, MDST8, BRAFV600K", "protocol": "as §1"}, "[2]": {"test_system": "BRAF-mutant CRC-derived cell lines", "experiment": "Proliferation of BRAF-mutant CRC-derived cell lines, panel summary", "format": "cell-based", "details": "all cell lines tested", "protocol": "as §1"}},
  "data": [
    {"smiles": "Cc1nc(NC(=O)N2CCC[C@H]2C(N)=O)sc1-c1ccnc(C(C)(C)C(F)(F)F)c1", "note": "[Compound B, (S)-Pyrrolidine-1,2-dicarboxylic acid 2-amide 1-({4-methyl-5-[2-(2,2,2-trifluoro-1,1-dimethyl-ethyl)-pyridin-4-yl]-thiazol-2-yl}-amide)]", "values": [
      {"measurement": "IC50", "setting": "LS411N", "value": "> 2700", "unit": "nM"},
      {"measurement": "IC50", "setting": "COLO 205", "value": "> 2700", "unit": "nM"},
      {"measurement": "IC50", "setting": "CL-34", "value": "> 2700", "unit": "nM"},
      {"measurement": "T/C", "setting": "[1]", "value": 57, "unit": "%"},
      {"measurement": "Mean Volume Day 1", "setting": "[1]", "value": 122, "unit": "mm^3"},
      {"measurement": "Mean Volume Day 29", "setting": "[1]", "value": 660, "unit": "mm^3"},
      {"measurement": "Mean Volume Change (ΔT)", "setting": "[1]", "value": 538, "unit": "mm^3"},
      {"measurement": "Mean BW Nadir, day of nadir", "setting": "[1]", "value": "Day 8"},
      {"measurement": "Deaths NTR", "setting": "[1]", "value": 0},
      {"measurement": "Deaths TR", "setting": "[1]", "value": 0},
      {"measurement": "Regressions CR", "setting": "[1]", "value": 0},
      {"measurement": "Regressions PR", "setting": "[1]", "value": 0},
      {"measurement": "Statistical Significance vs G1", "setting": "[1]", "value": "ns (not significant (ns) at P>0.05)"},
      {"measurement": "IC50", "setting": "SW1417", "value": "> 2700", "unit": "nM"},
      {"measurement": "BCRP substrate", "setting": "BCRP", "value": "substrate of BCRP"},
      {"measurement": "IC50", "setting": "RKO", "value": "> 2700", "unit": "nM"},
      {"measurement": "IC50", "setting": "OUMS-23", "value": "> 2700", "unit": "nM"},
      {"measurement": "CYP3A4 inhibition", "setting": "CYP3A4", "value": "time dependent inhibitor of CYP3A4"},
      {"measurement": "IC50", "setting": "SNU-C5", "value": "> 2700", "unit": "nM"},
      {"measurement": "IC50", "setting": "HT-29", "value": "> 2700", "unit": "nM"},
      {"measurement": "bioavailability", "setting": "Rat ADME bioavailability", "value": 58, "unit": "%"}
    ]},
    {"smiles": "COC(=O)N[C@@H](C)CNc1nccc(-c2cn(C(C)C)nc2-c2cc(Cl)cc(NS(C)(=O)=O)c2F)n1", "note": "[Compound A]", "values": [
      {"measurement": "IC50", "setting": "LS411N", "value": 18, "unit": "nM"},
      {"measurement": "IC50", "setting": "COLO 205", "value": 5, "unit": "nM"},
      {"measurement": "IC50", "setting": "MDST8", "value": 319, "unit": "nM"},
      {"measurement": "IC50", "setting": "CL-34", "value": 30, "unit": "nM"},
      {"measurement": "single agent activity on proliferation", "setting": "[2]", "value": "significant single agent activity"},
      {"measurement": "T/C", "setting": "[1]", "value": 95, "unit": "%"},
      {"measurement": "Mean Volume Day 1", "setting": "[1]", "value": 122, "unit": "mm^3"},
      {"measurement": "Mean Volume Day 29", "setting": "[1]", "value": 1016, "unit": "mm^3"},
      {"measurement": "Mean Volume Change (ΔT)", "setting": "[1]", "value": 894, "unit": "mm^3"},
      {"measurement": "Mean BW Nadir, day of nadir", "setting": "[1]", "value": "Day 8"},
      {"measurement": "Deaths NTR", "setting": "[1]", "value": 0},
      {"measurement": "Deaths TR", "setting": "[1]", "value": 0},
      {"measurement": "Regressions CR", "setting": "[1]", "value": 0},
      {"measurement": "Regressions PR", "setting": "[1]", "value": 0},
      {"measurement": "Statistical Significance vs G1", "setting": "[1]", "value": "ns (not significant (ns) at P>0.05)"},
      {"measurement": "BCRP inhibition", "setting": "BCRP", "value": "inhibitor of BCRP"},
      {"measurement": "IC50", "setting": "OUMS-23", "value": "> 2700", "unit": "nM"},
      {"measurement": "metabolism", "setting": "CYP3A4", "value": "mainly metabolized by CYP3A4"},
      {"measurement": "IC50", "setting": "SNU-C5", "value": "> 2700", "unit": "nM"},
      {"measurement": "IC50", "setting": "HT-29", "value": 49, "unit": "nM"}
    ]},
    {"smiles": "C#Cc1cccc(Nc2ncnc3cc(OCCOC)c(OCCOC)cc23)c1", "note": "[Erlotinib, erlotinib, reference compound]", "values": [
      {"measurement": "IC50", "setting": "LS411N", "value": "> 2700", "unit": "nM"},
      {"measurement": "IC50", "setting": "COLO 205", "value": "> 2700", "unit": "nM"},
      {"measurement": "IC50", "setting": "MDST8", "value": "> 2700", "unit": "nM"},
      {"measurement": "IC50", "setting": "CL-34", "value": "> 2700", "unit": "nM"},
      {"measurement": "IC50", "setting": "SW1417", "value": "> 2700", "unit": "nM"},
      {"measurement": "IC50", "setting": "RKO", "value": "> 2700", "unit": "nM"},
      {"measurement": "IC50", "setting": "OUMS-23", "value": "> 2700", "unit": "nM"},
      {"measurement": "IC50", "setting": "SNU-C5", "value": "> 2700", "unit": "nM"},
      {"measurement": "IC50", "setting": "HT-29", "value": "> 2700", "unit": "nM"}
    ]},
    {"smiles": "CC(=O)O[C@H]1C(=O)[C@@]2(C)[C@H]([C@H](OC(=O)c3ccccc3)[C@]3(O)C[C@H](OC(=O)[C@H](O)[C@@H](NC(=O)c4ccccc4)c4ccccc4)C(C)=C1C3(C)C)[C@]1(OC(C)=O)CO[C@@H]1C[C@@H]2O", "note": "[Paclitaxel, paclitaxel, reference compound]", "values": [
      {"measurement": "T/C", "setting": "[1]", "value": 11, "unit": "%"},
      {"measurement": "Mean Volume Day 1", "setting": "[1]", "value": 122, "unit": "mm^3"},
      {"measurement": "Mean Volume Day 29", "setting": "[1]", "value": 229, "unit": "mm^3"},
      {"measurement": "Mean Volume Change (ΔT)", "setting": "[1]", "value": 107, "unit": "mm^3"},
      {"measurement": "Mean BW Nadir, day of nadir", "setting": "[1]", "value": "Day 11"},
      {"measurement": "Deaths NTR", "setting": "[1]", "value": 0},
      {"measurement": "Deaths TR", "setting": "[1]", "value": 0},
      {"measurement": "Regressions CR", "setting": "[1]", "value": 0},
      {"measurement": "Regressions PR", "setting": "[1]", "value": 0},
      {"measurement": "Statistical Significance vs G1", "setting": "[1]", "value": "** (very significant (“**”) at 0.001<P≦0.01)"}
    ]}
  ]
}
